The source of these data is US9650379B2 (CHONG KUN DANG PHARMACEUTICAL CORP., priority 2013, dated 2017).

The target in one test is T1, HDAC6 human recombinant (Homo sapiens, UniProt Q9UBN7).
T1 construct: purchased Calbiochem 382180
T1 sequence (Q9UBN7 1-1215): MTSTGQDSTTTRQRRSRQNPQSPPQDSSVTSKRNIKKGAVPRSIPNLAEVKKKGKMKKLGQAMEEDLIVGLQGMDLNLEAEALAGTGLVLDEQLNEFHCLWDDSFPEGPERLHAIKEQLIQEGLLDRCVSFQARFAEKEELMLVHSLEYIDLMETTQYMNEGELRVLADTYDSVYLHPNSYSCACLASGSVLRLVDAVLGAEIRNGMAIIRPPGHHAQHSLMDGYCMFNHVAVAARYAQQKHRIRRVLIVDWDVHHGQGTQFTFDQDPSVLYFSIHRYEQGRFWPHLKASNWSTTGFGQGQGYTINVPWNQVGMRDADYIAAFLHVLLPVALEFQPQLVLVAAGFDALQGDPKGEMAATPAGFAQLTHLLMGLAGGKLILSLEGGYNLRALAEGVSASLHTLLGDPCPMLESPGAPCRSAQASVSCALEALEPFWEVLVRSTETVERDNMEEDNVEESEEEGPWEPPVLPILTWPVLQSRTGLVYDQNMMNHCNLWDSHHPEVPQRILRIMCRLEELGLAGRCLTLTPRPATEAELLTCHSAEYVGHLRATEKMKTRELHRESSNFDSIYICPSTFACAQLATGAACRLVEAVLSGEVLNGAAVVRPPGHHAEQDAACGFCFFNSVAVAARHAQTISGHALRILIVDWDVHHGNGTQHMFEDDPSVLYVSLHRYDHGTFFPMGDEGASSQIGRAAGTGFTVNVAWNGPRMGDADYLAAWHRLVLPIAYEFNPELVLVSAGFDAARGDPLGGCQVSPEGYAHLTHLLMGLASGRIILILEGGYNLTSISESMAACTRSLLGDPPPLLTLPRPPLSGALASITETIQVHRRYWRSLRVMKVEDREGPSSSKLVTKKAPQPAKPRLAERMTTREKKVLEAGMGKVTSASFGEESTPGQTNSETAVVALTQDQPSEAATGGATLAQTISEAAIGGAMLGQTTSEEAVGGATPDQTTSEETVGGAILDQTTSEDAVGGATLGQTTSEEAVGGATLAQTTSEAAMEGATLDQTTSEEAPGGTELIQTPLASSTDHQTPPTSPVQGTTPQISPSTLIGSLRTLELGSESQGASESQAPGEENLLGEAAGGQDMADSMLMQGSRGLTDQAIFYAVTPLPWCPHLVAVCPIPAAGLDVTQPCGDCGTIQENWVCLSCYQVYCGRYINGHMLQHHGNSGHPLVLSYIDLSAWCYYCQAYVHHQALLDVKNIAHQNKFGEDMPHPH
Description: Inhibition of HDAC6 activity (fluorimetric assay). Format: biochemical. The settings on record: test concentrations 0.1, 1, 10, 100 and 1000 nM; 37° C., 60 minutes. An outline of the steps: (§1)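 HDAC1 tested with the kit assay mixture at 100, 1000 and 10000 nM compound; recombinant human HDAC6 at 0.1, 1, 10, 100 and 1000 nM. Reaction ran 60 min at 37° C, then developer was added for 30 min at 37° C and fluorescence quantified.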

The target of another test is T2, HDAC1 (Homo sapiens, UniProt Q13547).
T2 construct: purchased Enzolifesciences BML-AK511
The experiment in a line: Inhibition of HDAC1 activity (HDAC1 fluorimetric drug discovery assay kit). The settings on record: test concentrations 100, 1000 and 10000 nM; 37° C., 60 minutes. The format is biochemical. Put shortly:
as §1

T2 sequence (Q13547 whole entry): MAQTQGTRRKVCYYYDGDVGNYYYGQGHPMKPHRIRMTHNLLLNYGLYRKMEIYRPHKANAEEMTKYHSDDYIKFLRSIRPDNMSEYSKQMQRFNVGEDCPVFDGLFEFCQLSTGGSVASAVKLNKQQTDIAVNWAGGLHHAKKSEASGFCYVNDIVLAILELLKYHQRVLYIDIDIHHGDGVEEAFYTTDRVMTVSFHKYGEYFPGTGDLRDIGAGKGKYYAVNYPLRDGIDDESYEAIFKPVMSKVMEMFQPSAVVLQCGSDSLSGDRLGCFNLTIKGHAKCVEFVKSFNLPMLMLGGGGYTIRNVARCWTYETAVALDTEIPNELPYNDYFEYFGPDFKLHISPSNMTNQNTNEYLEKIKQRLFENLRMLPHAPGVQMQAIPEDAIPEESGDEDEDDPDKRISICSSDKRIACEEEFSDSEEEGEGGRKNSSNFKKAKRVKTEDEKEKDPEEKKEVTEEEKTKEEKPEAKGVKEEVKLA

In general, IC50 refers to the concentration at which inhibition is half-maximal. As to `O=C(NO)c1ccc(Cn2ccc3c(N4CCN(Cc5ccccc5)CC4)ccnc32)cc1` [Compound 704, 4-((4-(4-benzylpiperazin-1-yl)-1H-pyrrolo[2,3-b]pyridin-1-yl)methyl)-N-hydroxybenzamide], the values for the IC50 on HDAC6 human recombinant and against HDAC1 were 9 nM and 620 nM, respectively.
The like results for `COc1ccc(CN2CCC(c3ccnc4c3ccn4Cc3ccc(C(=O)NO)cc3)CC2)cc1` [Compound 959, N-hydroxy-4-((4-(1-(4-methoxybenzyl)piperidin-4-yl)-1H-pyrrolo[2,3-b]pyridin-1-yl)methyl)benzamide] were, in that order, 12 nM and 900 nM.
For `CC(CC(=O)O)N1CCC(c2ccnc3c2ccn3Cc2ccc(C(=O)NO)cc2)CC1` (stereo not shown) [Compound 1015, 3-(4-(1-(4-(hydroxycarbamoyl)benzyl)-1H-pyrrolo[2,3-b]pyridin-4-yl)piperidin-1-yl)butanoic acid], in that order: 8.5 nM and 670 nM.
`O=C(NO)c1ccc(Cn2ccc3cc(C4CCN(Cc5ncccn5)CC4)cnc32)cc1` [Compound 881, N-hydroxy-4-((5-(1-(pyrimidin-2-ylmethyl)piperidin-4-yl)-1H-pyrrolo[2,3-b]pyridine-1-yl)methyl)benzamide]: the IC50 at HDAC6 human recombinant amounted to 5.3 nM; against HDAC1 it was 850 nM.
The like results for `O=C(NO)c1ccc(Cn2ccc3cc(C4CCN(Cc5ccc(-n6cnnc6)cc5)CC4)cnc32)cc1` [Compound 874, 4-((5-(1-(4-(4H-1,2,4-triazol-4-yl)benzyl)piperidin-4-yl)-1H-pyrrolo[2,3-b]pyridin-1-yl)methyl)-N-hydroxybenzamide] were, in that order, 18.5 nM and 690 nM.
The like results for `CC(C)(O)CN1CC2(CCN(c3ccnc4c3ccn4Cc3ccc(C(=O)NO)cc3)CC2)C1` [Compound 1025, N-hydroxy-4-((4-(2-(2-hydroxy-2-methylpropyl)-2,7-diazaspiro[3.5]nonan-7-yl)-1H-pyrrolo[2,3-b]pyridin-1-yl)methyl)benzamide] were, in that order, 1.1 nM and 170 nM.
As to `O=C(NO)c1ccc(Cn2ccc3cc(-c4cnc(O)nc4)cnc32)cc1` [Compound 687, N-hydroxy-4-((5-(2-hydroxypyrimidin-5-yl)-1H-pyrrolo[2,3-b]pyridin-1-yl)methyl)benzamide], the IC50 on HDAC6 human recombinant was found to be 61 nM; against HDAC1, 3230 nM.
As to `Cn1ncc2ccc(-c3cnc4c(ccn4Cc4ccc(C(=O)NO)cc4)c3)cc21` [Compound 685, N-hydroxy-4-((5-(1-methyl-1H-indazol-6-yl)-1H-pyrrolo[2,3-b]pyridin-1-yl)methyl)benzamide], the IC50 on HDAC6 human recombinant is 6 nM; on HDAC1 it was 790 nM.
As for `CN1CC=C(c2cnc3c(ccn3Cc3ccc(C(=O)NO)cc3)c2)CC1` [Compound 647, N-hydroxy-4-((5-(1-methyl-1,2,3,6-tetrahydropyridin-4-yl)-1H-pyrrolo[2,3-b]pyridin-1-yl)methyl)benzamide], the figures for the concentration for half-maximal inhibition (IC50) on HDAC6 human recombinant and against HDAC1 were 15 nM and 1170 nM, respectively.
For `CC(O)(CO)CN1CCC(c2ccnc3c2ccn3Cc2ccc(C(=O)NO)cc2)CC1` (stereo not shown) [Compound 945, 4-((4-(1-(2,3-dihydroxy-2-methylpropyl)piperidin-4-yl)-1H-pyrrolo[2,3-b]pyridin-1-yl)methyl)-N-hydroxybenzamide], in that order: 3.7 nM and 200 nM.
For `CC(C)(C)CN1CCC(c2ccnc3c2ccn3Cc2ccc(C(=O)NO)cc2)CC1` [Compound 868, N-hydroxy-4-((4-(1-neopentylpiperidin-4-yl)-1H-pyrrolo[2,3-b]pyridin-1-yl)methyl)benzamide], the 50% inhibitory concentration (IC50) on HDAC6 human recombinant amounted to 15.6 nM; on HDAC1, 930 nM.
`O=C(NO)c1ccc(Cn2ccc3cc(N4CCN(Cc5ccccc5F)CC4)cnc32)cc1` [Compound 861, 4-((5-(4-(2-fluorobenzyl)piperazin-1-yl)-1H-pyrrolo[2,3-b]pyridin-1-yl)methyl)-N-hydroxybenzamide]: the 50% inhibitory concentration (IC50) on HDAC6 human recombinant is 11.2 nM; at HDAC1, 1880 nM.
The like results for `CN1CCN(c2ccccc2CN2CCC(c3cnc4c(ccn4Cc4ccc(C(=O)NO)cc4)c3)CC2)CC1` [Compound 883, N-hydroxy-4-((5-(1-(2-(4-methylpiperzin-1-yl)benzyl)piperidin-4-yl)-1H-pyrrolo[2,3-b]pyridin-1-yl)methyl)benzamide] were, in that order, 2.1 nM and 2090 nM.
The like results for `CC(C)(O)CN1CCC(c2cnc3c(ccn3Cc3ccc(C(=O)NO)cc3)c2)CC1` [Compound 714, N-hydroxy-4-((5-(1-(2-hydroxy-2-methylpropyl)piperidin-4-yl)-1H-pyrrolo[2,3-b]pyridin-1-yl)methyl)benzamide] were, in that order, 12 nM and 1200 nM.
The like results for `COc1ccc(CN2CC3(CCN(c4ccnc5c4ccn5Cc4ccc(C(=O)NO)cc4)CC3)C2)cc1` [Compound 1023, N-hydroxy-4-((4-(2-(4-methoxybenzyl)-2,7-diazaspiro[3.5]nonan-7-yl)-1H-pyrrolo[2,3-b]pyridin-1-yl)methyl)benzamide] were, in that order, 3.3 nM and 560 nM.
Consider `CC(C)(C(=O)O)N1CCC(c2ccnc3c2ccn3Cc2ccc(C(=O)NO)cc2)CC1` [Compound 1028, 2-(4-(1-(4-(hydroxycarbamoyl)benzyl)-1H-pyrrolo[2,3-b]pyridin-4-yl)piperidin-1-yl)-2-methylpropionic acid], for which the concentration for half-maximal inhibition (IC50) was 1.4 nM on HDAC6 human recombinant and 420 nM against HDAC1.
`O=C(NO)c1ccc(Cn2ccc3c(-c4ccccc4)ccnc32)cc1` [Compound 656, N-hydroxy-4-((4-phenyl-1H-pyrrolo[2,3-b]pyridin-1-yl)methyl)benzamide]: the IC50 on HDAC6 human recombinant was 16 nM; at HDAC1 it was 1350 nM.
For the compound `O=C(NO)c1ccc(Cn2ccc3c(N4CCN(Cc5ccncc5)CC4)ccnc32)cc1` [Compound 850, N-hydroxy-4-((4-(4-(pyridin-4-ylmethyl)piperazin-1-yl)-1H-pyrrolo[2,3-b]pyridin-1-yl)methyl)benzamide], the IC50 on HDAC6 human recombinant came out at 4.4 nM; at HDAC1, 220 nM.
For `C[C@@H]1CN(c2cnc3c(ccn3Cc3ccc(C(=O)NO)cc3)c2)C[C@H](C)N1Cc1cccnc1` [Compound 1004, 4-((5-((3S,5R)-3,5-dimethyl-4-(pyridin-3-ylmethyl)piperazin-1-yl)-1H-pyrrolo[2,3-b]pyridin-1-yl)methyl)-N-hydroxybenzamide], in that order: 3.2 nM and 610 nM.
The like results for `O=C(NO)c1ccc(Cn2ccc3ccc(C4CCN(Cc5cccnc5)CC4)nc32)cc1` [Compound 992, N-hydroxy-4-((6-(1-(pyridin-3-ylmethyl)piperidin-4-yl)-1H-pyrrolo[2,3-b]pyridin-1-yl)methyl)benzamide] were, in that order, 34 nM and 860 nM.
As to `O=C(NO)c1ccc(Cn2ccc3cc(C4CCN(Cc5ccccc5)CC4)cnc32)cc1` [Compound 804, 4-((5-(1-benzylpiperidin-4-yl)-1H-pyrrolo[2,3-b]pyridin-1-yl)methyl)-N-hydroxybenzamide], the IC50 on HDAC6 human recombinant was 58 nM; on HDAC1, 1980 nM.
For `O=C(NO)c1ccc(Cn2ccc3cc(-c4cccnc4)cnc32)cc1` [Compound 103], in that order: 0.26 nM and 382 nM.
The like results for `O=C(NO)c1ccc(Cn2ccc3cc(-c4ccccc4)cnc32)cc1` [Compound 645, N-hydroxy-4-((5-phenyl-1H-pyrrolo[2,3-b]pyridin-1-yl)methyl)benzamide] were, in that order, 17 nM and 3050 nM.
